Earlier results, collected in US20210169840A1, “COMPOSITION AND METHOD OF AN IRON SUPPLEMENT” (priority 2019, published 2021).

Conditions: in vivo

carbonyl iron
absorption: ~70%
